Results taken from US8338143B2, “Enhanced production of paclitaxel and taxanes by cell cultures of Taxus species” (Phyton Holdings, LLC, priority 1996, dated 2012).
Where two headings read alike, the source gives them in different places.

Tests used:
[1] = system: Taxus chinensis cell culture SS122-42; experiment: Enhancement of taxane biosynthesis by jasmonic acid and its methyl ester; type: cell-based; conditions: 200 μM JMA or 89 μM MJS; Medium N + 10 μM NAA, 14 days, whole broth
Experimental: Seven-day old cells of Taxus chinensis suspensions cultivated in Medium M (Table 2) were suction filtered aseptically using a sterile Buchner funnel fitted with a MIRACLOTH (Calbiochem) filter. Cells were inoculated into culture medium of the given composition indicated in Table 12, at a fresh weight cell density in the range of 15% to 20% (w/v). The cultures were incubated at 24±1° C. at 120 or 180 RPM (depending on the vessel size) on a gyratory shaker (1″ throw) in the dark. Evaporation was corrected for by adding sterile distilled water. Samples of whole broth (i.e., both extracellular and intracellular taxanes) were taken at periodic intervals, and were processed and analyzed by HPLC according to the methods outlined in Example 5.

[2] = system: Taxus chinensis SS122-42; experiment: Enhancement of taxane biosynthesis by MDNA; type: cell-based; conditions: 50 μM MDNA, 14 days, whole broth
Experimental: Seven-day old cells of Taxus chinensis suspension culture SS122-42 cultivated in Medium M (Table 2) were suction filtered aseptically using a sterile Buchner funnel fitted with a […] (Calbiochem) filter. […] The vessels were incubated at 24±1° C. at 180 RPM on a gyratory shaker (1'' throw) in the dark. Treated cultures were sampled and analyzed using the methods described in Example 5 at various time points. Evaporation was corrected for by adding sterile distilled water at periodic intervals.

[3] = system: Taxus chinensis cell culture SS122-13; experiment: Enhancement of taxane biosynthesis by jasmonic acid and its methyl ester; type: cell-based; conditions: 89 μM MJS; Medium N + 10 μM NAA, 14 days, whole broth
Experimental: Seven-day old cells of Taxus chinensis suspensions cultivated in Medium M (Table 2) were suction filtered aseptically using a sterile Buchner funnel fitted with a […] (Calbiochem) filter. […] The cultures were incubated at 24±1° C. at 120 or 180 RPM (depending on the vessel size) on a gyratory shaker (1'' throw) in the dark. Evaporation was corrected for by adding sterile distilled water.

[4] = system: Taxus chinensis cell line KS1A; experiment: Enhancement of taxane biosynthesis by silver compounds; type: cell-based
Experimental: Analytical high performance liquid chromatography (HPLC) was performed on a high-carbon loaded diphenyl column (Supelco, 5 μM, 4.6 mm×25 cm) with an LDC Analytical binary gradient high pressure mixing system consisting of CM3500/CM3200 pumps, a CM4100 variable volume autosampler and an SM5000 photo diode array detector interfaced to a personal computer. Column temperature was regulated ay 35° C. with an Eldex CH150 column oven. Quantitative HPLC analysis of taxanes was accomplished using a binary gradient elution scheme as follows: […]
Seven-day old cells of Taxus chinensis suspension KS1A cultivated in Medium L (Table 2) were suction filtered aseptically using a sterile Buchner funnel fitted with a MIRACLOTH (Calbiochem) filter. Approximately 0.75 to 1 gram fresh weight cells were inoculated into 4 to 5 mL of culture medium of the given composition indicated in Table 10, to yield a fresh weight cell density in the range of 15% to 20% (w/v). The vessels were incubated at 25±1° C. at 120 RPM on a gyratory shaker (1″ throw) in the dark. Evaporation was corrected for by addition of sterile distilled water. Samples of whole broth (i.e., both extracellular and intracellular taxanes) were taken at periodic intervals, and were processed and analyzed by HPLC according to the methods outlined in Example 5.

[5] = system: Taxus spp. cell cultures; experiment: Elicitation of Taxus cell cultures by biotic and abiotic elicitors; conditions: comparison among elicitors tested
[6] = system: Taxus spp. cell cultures
[7] = system: Taxus chinensis cell culture SS6A-1224
[8] = system: Taxus chinensis cell culture SS122-13
[9] = system: Taxus chinensis cell culture SS122-42
[10] = culture medium I (Medium N + 10 μM NAA)
[11] = culture medium II (medium I + 50 μM silver thiosulfate)

For `CC/C=C\C[C@H]1C(=O)CC[C@@H]1CC(=O)O` [JMA, Jasmonic acid], which “Baccatin III” value [1] is on record?
The value was 4 mg/L.

And the “Other Taxanes” value [1]?
The value was 87 mg/L.

What about the “Taxol (paclitaxel)” value [1] of the same compound?
The value was 120 mg/L.

And the “Total Taxanes” value [1]?
Its value is 211 mg/L.

With `O=C(O)C=Cc1cc2c(cc1[N+](=O)[O-])OCO2` [MDNA, 3,4-methylenedioxy-6-nitrocinnamic acid] as the compound, how does the “Baccatin III” value [2, 10] read?
Its value is 5 mg/L.

And the “Other Taxanes” value [2, 10]?
The value was 45 mg/L.

And the “Taxol (paclitaxel)” value [2, 10]?
The value was 163 mg/L.

And the “Total Taxanes” value [2, 10]?
Its value is 213 mg/L.

What about the “Baccatin III” value [2, 11] of the same compound?
Its value is 34 mg/L.

And the “Other Taxanes” value [2, 11]?
The value was 89 mg/L.

And the “Taxol (paclitaxel)” value [2, 11]?
The value was 311 mg/L.

What about the “Total Taxanes” value [2, 11] of the same compound?
The value was 434 mg/L.

What does the source list for `CC/C=C\CC1C(=O)CCC1CC(=O)OC` (centres unmarked) [MJS, methyl jasmonate]?
Baccatin III [1]: 3 mg/L; Other Taxanes [1]: 109 mg/L; Taxol (paclitaxel) [1]: 121 mg/L; Total Taxanes [1]: 233 mg/L; Baccatin III [3]: 9 mg/L; Other Taxanes [3]: 63 mg/L; Taxol (paclitaxel) [3]: 73 mg/L; Total Taxanes [3]: 124 mg/L

For `O=C([O-])c1ccccc1.[Ag+]` [Silver benzoate], which “Baccatin III” value [4] is on record?
Its value is 40 mg/L extracellular product.

What about the “Taxol (paclitaxel)” value [4] of the same compound?
Its value is 7 mg/L extracellular product.

And the “Total Taxanes” value [4]?
The value was 47 mg/L extracellular product.

For `O=S(=O)([O-])[O-].[Ag+].[Ag+]` [Silver sulfate], which “Baccatin III” value [4] is on record?
The value was 61 mg/L extracellular product.

What about the “Taxol (paclitaxel)” value [4] of the same compound?
The value was 7 mg/L extracellular product.

What about the “Total Taxanes” value [4] of the same compound?
The value was 68 mg/L extracellular product.

`O=C(O)c1ccccc1` [benzoic acid] was tested. Which “production increase by elicitation (taxane accumulation and secretion)” value [5] did it give?
Its value is “highest production increase”.

For `COc1cc(/C=C/C(=O)O)ccc1O` [ferulic acid], which “production increase by elicitation (taxane accumulation and secretion)” value [5] is on record?
Its value is “highest production increase”.

Which “toxicity to cells / effect on cell viability” value [6] does the source give for Chitosan here?
Its value is “toxic and causes permanent cell damage”.

How did the “Baccatin III” value [4] turn out when Silver oxide was run?
Its value is 43 mg/L extracellular product.

And the “Taxol (paclitaxel)” value [4]?
Its value is 18 mg/L extracellular product.

And the “Total Taxanes” value [4]?
The value was 61 mg/L extracellular product.

Which “Baccatin III” value [4] does the source give for Silver thiosulfate here?
Its value is 71 mg/L extracellular product.

And the “Taxol (paclitaxel)” value [4]?
The value was 15 mg/L extracellular product.

And the “Total Taxanes” value [4]?
The value was 86 mg/L extracellular product.

What about the “Baccatin III” value [7] of the same compound?
Its value is 172 mg/L.

And the “Other Taxanes” value [7]?
Its value is 126 mg/L.

What about the “Taxol (paclitaxel)” value [7] of the same compound?
Its value is 86 mg/L.

What about the “Total Taxanes” value [7] of the same compound?
The value was 384 mg/L.

What about the “Baccatin III” value [8] of the same compound?
Its value is 12 mg/L.

And the “Other Taxanes” value [8]?
The value was 60 mg/L.

What about the “Taxol (paclitaxel)” value [8] of the same compound?
Its value is 103 mg/L.

And the “Total Taxanes” value [8]?
Its value is 173 mg/L.

What about the “Baccatin III” value [9] of the same compound?
Its value is 4 mg/L.

And the “Other Taxanes” value [9]?
The value was 38 mg/L.

And the “Taxol (paclitaxel)” value [9]?
Its value is 146 mg/L.

What about the “Total Taxanes” value [9] of the same compound?
The value was 188 mg/L.

Which “Baccatin III” value [4] does the source give for Toluenesulfonic acid silver salt here?
Its value is 39 mg/L extracellular product.

What about the “Taxol (paclitaxel)” value [4] of the same compound?
Its value is 6 mg/L extracellular product.

And the “Total Taxanes” value [4]?
The value was 45 mg/L extracellular product.
